Assay results from ChEMBL document CHEMBL1122653, “Substituted (omega-aminoalkoxy) stilbene derivatives as a new class of anticonvulsants” (1984).

Legend:
Mus musculus [1] = test: Ability to suppress PTZ (pentylenetetrazole ) induced tonic extensor convulsion in mice after oral administration at a dose 50 mg/kg; type: functional
Mus musculus [2] = test: Ability to suppress maximal electroshock induced tonic extensor convulsion in mice after oral administration at 50 mg/kg; type: functional
Mus musculus [3] = test: Ability to suppress PTZ (pentylenetetrazole) induced tonic extensor convulsion in mice after oral administration at a dose 50 mg/kg; type: functional
Mus musculus [4] = test: Ability to suppress PTZ (pentylenetetrazole) induced tonic extensor convulsion in mice after oral administration at a dose 25 mg/kg; type: functional
Mus musculus [5] = test: Ability to suppress MES (maximal electroshock ) induced tonic extensor convulsion in mice after oral administration at a dose 100 mg/kg; type: functional
Mus musculus [6] = test: Ability to suppress MES (maximal electroshock) induced tonic extensor convulsion in mice after oral administration at a dose 50 mg/kg; type: functional
Mus musculus [7] = test: Ability to suppress PTZ (pentylenetetrazole ) induced tonic extensor convulsion in mice after oral administration of the compound; type: functional
Mus musculus [8] = test: Ability to suppress MES (maximal electroshock ) induced tonic extensor convulsion in mice after oral administration of the compound; type: functional
Mus musculus [9] = test: Ability to suppress PTZ (pentylenetetrazole) induced tonic extensor convulsion in mice after oral administration of the compound; type: functional
Rattus norvegicus [10] = species on record: Rattus norvegicus; test: Ability to suppress PTZ (pentylenetetrazole) induced clonic convulsions seizures in male Wistar rats; type: functional
[11] = Ratio of the dose showing muscle relaxant action in rats and the dose suppressing MES induced seizures in rats; type: functional
Rattus norvegicus [12] = species on record: Rattus norvegicus; test: Ability to suppress MES ( maximal electroshock ) induced seizures in male Wistar rats; type: functional
Rattus norvegicus [13] = species on record: Rattus norvegicus; test: Muscle-relaxant action in vertical screen method.; type: functional
Rattus norvegicus [14] = species on record: Rattus norvegicus; test: Ratio of the dose showing muscle relaxant action in rats and the dose suppressing MES induced seizures in rats
Rattus norvegicus [15] = species on record: Rattus norvegicus; test: Ability to suppress MES (maximal electroshock) induced seizures in male Wistar rats; type: functional
Rattus norvegicus [16] = species on record: Rattus norvegicus; test: Ability to suppress PTZ (convulsions seizures in male Wistar rats; type: functional
Rattus norvegicus [17] = species on record: Rattus norvegicus; test: Muscle-relaxant action in vertical screen method; type: functional

Structure (SMILES)	inhibition in vivo at 50 mg/kg (Mus musculus [1])	inhibition in vivo at 50 mg/kg (Mus musculus [2])	also measured
CN(C)CCCCOc1ccccc1/C=C/c1cccc(F)c1	12.5%		
CC1CCCN(CCCCOc2ccccc2/C=C/c2ccccc2)C1 (stereo not given)		12.5%	
CN(C)CCCOc1ccccc1/C=C/c1ccccc1		14.2%	inhibition in vivo at 50 mg/kg (Mus musculus [3]): 87.5%
CCCOC1CCCN(CCCCOc2ccccc2/C=C/c2ccccc2)C1 (stereo not given)		0%	
CN1CCN(CCCCOc2ccccc2/C=C/c2ccccc2F)CC1		0%	
CN(C)CCCCOc1ccccc1/C=C/c1ccccc1F	17%		
CN(C)CCCCCOc1ccccc1/C=C/c1ccccc1			inhibition in vivo at 25 mg/kg (Mus musculus [4]): 75%; inhibition in vivo at 100 mg/kg (Mus musculus [5]): 81%
OCC1CCCN(CCCCOc2ccccc2/C=C/c2ccccc2)C1 (stereo not given)		12.5%	
CN1CCN(CCCCOc2ccccc2/C=C/c2ccccc2)CC1.Cl.Cl			inhibition in vivo at 50 mg/kg (Mus musculus [6]): 0%; ED50 (Mus musculus [7]): 11.1 mg/kg; ED50 (Mus musculus [8]): 31.1 mg/kg
CCOC1CCCN(CCCCOc2ccccc2/C=C/c2ccccc2)C1.Cl (stereo not given)			ED50 (Mus musculus [9]): 9.8 mg/kg; ED50 (Mus musculus [8]): 17.5 mg/kg
CC(=O)OC1CCCN(CCCCOc2ccccc2/C=C/c2ccccc2)C1.Cl (stereo not given)			ED50 (Mus musculus [9]): 7.9 mg/kg; ED50 (Mus musculus [8]): 18.7 mg/kg
OC1CCN(CCCCOc2ccccc2/C=C/c2ccccc2)CC1	50%	0%	
COC1CCCN(CCCCOc2ccccc2/C=C/c2ccccc2)C1.Cl (stereo not given)			ED50 (Mus musculus [9]): 9.3 mg/kg; ED50 (Mus musculus [8]): 12.6 mg/kg
COc1cccc(OCCCCN2CCN(C)CC2)c1/C=C/c1ccccc1.Cl.Cl		42.9%	ED50 (Mus musculus [7]): 50 mg/kg
CN1CCN(CCCCOc2ccccc2/C=C/c2ccc(F)cc2)CC1.Cl.Cl			ED50 (Mus musculus [7]): 17.7 mg/kg; ED50 (Mus musculus [8]): 39 mg/kg
Cl.OC1CCCN(CCCCOc2ccccc2/C=C/c2ccccc2)C1 (stereo not given)			ED50 (Rattus norvegicus [10]): 248 mg/kg; Therapeutic index [11]: >24; ED50 (Rattus norvegicus [12]): 12.5 mg/kg; ED50 (Rattus norvegicus [13]): > 300 mg/kg; ED50 (Mus musculus [8]): 20 mg/kg
Cl.OC1CCCN(CCCCOc2ccccc2/C=C/c2ccc(F)cc2)C1 (stereo not given)			ED50 (Mus musculus [9]): 8.8 mg/kg; ED50 (Mus musculus [8]): 21.9 mg/kg
Cl.OC1CCCN(CCCCOc2ccccc2/C=C/c2cccc(F)c2)C1 (stereo not given)			ED50 (Mus musculus [8]): 38 mg/kg
O=C(O)C1CCCN(CCCCOc2ccccc2/C=C/c2ccccc2)C1 (stereo not given)		12.5%	
COC(=O)C1CCCN(CCCCOc2ccccc2/C=C/c2ccccc2)C1 (stereo not given)		0%	
C(=C\c1ccccc1OCCCCN1CCOCC1)/c1ccccc1	87.5%	14.3%	
CNCCCCOc1ccccc1/C=C/c1ccccc1.Cl			ED50 (Mus musculus [8]): 118 mg/kg
Cc1ccccc1/C=C/c1ccccc1OCCCCN(C)C	16.7%		
COc1ccccc1/C=C/c1ccccc1OCCCCN(C)C	62.5%	0%	
C(=C\c1ccccc1OCCCCN1CCCCC1)/c1ccccc1		42.9%	inhibition in vivo at 50 mg/kg (Mus musculus [3]): 100%

Structure (SMILES)	inhibition in vivo at 50 mg/kg (Mus musculus [1])	inhibition in vivo at 50 mg/kg (Mus musculus [2])	also measured
CCCN(CCC)CCCCOc1ccccc1/C=C/c1ccccc1		0%	
C(=C\c1ccccc1OCCCCN1CCCC1)/c1ccccc1	87.5%	42.9%	
CCN(CC)CCCCOc1ccccc1/C=C/c1ccccc1.Cl			ED50 (Mus musculus [7]): 11.5 mg/kg; ED50 (Mus musculus [8]): 82 mg/kg
CN(C)CCCCOc1ccccc1/C=C/c1ccc(F)cc1.Cl			ED50 (Mus musculus [7]): 15.4 mg/kg; inhibition in vivo at 100 mg/kg (Mus musculus [5]): 14.3%
COC1CCCN(CCCCOc2ccccc2/C=C/c2ccc(F)cc2)C1 (stereo not given)		12.5%	
CN(C)CCN(C)CCCCOc1ccccc1/C=C/c1ccccc1		0%	
CC(=O)N1CCN(CCCCOc2ccccc2/C=C/c2ccccc2)CC1	12.5%	0%	
C(=C\c1ccccc1OCCCCN1CCNCC1)/c1ccccc1	0%	0%	
CN(C)CCCCOc1ccc(/C=C/c2ccccc2)cc1		12.5%	
CN(C)CCOc1ccccc1/C=C/c1ccccc1			inhibition in vivo at 50 mg/kg (Mus musculus [3]): 75%
CCCN1CCN(CCCCOc2ccccc2/C=C/c2ccccc2)CC1	87.5%	42.9%	
CN(C)CCCCOc1cccc(/C=C/c2ccccc2)c1		0%	
CCN1CCN(CCCCOc2ccccc2/C=C/c2ccccc2)CC1		33.3%	
CN(C)CCCCOc1ccccc1/C=C/c1cccc(Cl)c1	23.9%	14.3%	
NC(=O)C1CCCN(CCCCOc2ccccc2/C=C/c2ccccc2)C1 (stereo not given)		0%	
CN(C)CCCCOc1ccccc1/C=C/c1ccccc1Cl	50%	14.3%	
CN(C)CCCCOc1ccccc1/C=C/c1ccc(Cl)cc1	62.5%	0%	
CN1CCN(CCCCOc2ccccc2/C=C/c2ccc(Cl)c(Cl)c2)CC1	0%	0%	
CN1CCN(CCCCOc2ccccc2/C=C/c2cccc(Cl)c2)CC1	50%	0%	
OC1CCCN(CCCCOc2ccc(Cl)cc2/C=C/c2ccccc2)C1 (stereo not given)		12.5%	
COc1cccc(/C=C/c2ccccc2)c1OCCCCN(C)C		57.1%	ED50 (Mus musculus [7]): 21.6 mg/kg
OC1CCCN(CCCCOc2ccccc2/C=C/c2cccc(Cl)c2)C1 (stereo not given)		12.5%	
NC(=O)N1c2ccccc2C=Cc2ccccc21 [CARBAMAZEPINE]			ED50 (Rattus norvegicus [10]): 300 mg/kg; Therapeutic index (Rattus norvegicus [14]): 3.75; ED50 (Rattus norvegicus [15]): 32 mg/kg; ED50 (Rattus norvegicus [13]): 120 mg/kg
O=C1NC(=O)C(c2ccccc2)(c2ccccc2)N1 [PHENYTOIN]			ED50 (Rattus norvegicus [16]): 250 mg/kg; Therapeutic index [11]: >6.25; ED50 (Rattus norvegicus [12]): 40 mg/kg; ED50 (Rattus norvegicus [17]): > 250 mg/kg
